Measurements from patent US11885816B2, “Personalized medicine approach for treating cognitive loss” (University of North Texas Health Science Center at Fort …, priority 2013, dated 2024).
“Also recorded” adds a separate entry of the source. Read-outs that look alike come from different tables or passages of the source.

Test system: AD patients
Settings: for disease severity (CDR Sum of Boxes [CDRSum]): treated; for change in MMSE scores over the 12 month period of the trial: treatment group
Procedure: In order to determine if the proinflammatory endophenotype predicted treatment response, baseline plasma samples were analyses from a previously conducted trial of the Alzheimer's Disease Cooperative Study (ADCS, Aisen et al 2003, JAMA).
Baseline plasma samples were assayed using enhanced chemiluminescence (ECL) for a range of inflammatory markers. The pro-inflammatory profile was generated using CRP and TNFα. Additional markers can be used to improve the already robust results shown herein. The frequency of the low, middle (referent group) and high ends of the pro-inflammatory profile are presented below.
Blood samples from a previously conducted clinical trial among AD patients was used. This trial was conducted by the Alzheimer's Disease Cooperative Study (ADCS, Aisen et al 2003, JAMA).
Baseline plasma samples were assayed using ECL for a range of inflammatory markers. The pro-inflammatory profile was generated using CRP and TNFα.

Structure (SMILES): COc1ccc2cc([C@H](C)C(=O)O)ccc2c1 [naproxen]
- treatment comparison of non-selective with selective NSAIDs (high end of the proinflammatory endophenotype, comparator selective NSAIDs (celecoxib)): superior treatment
- disease severity (CDR Sum of Boxes [CDRSum]) (high end of the pro-inflammatory profile, compared to untreated): declined less than those who were untreated
- disease severity (CDR Sum of Boxes [CDRSum]) (low end of the pro-inflammatory profile, over 12 months, compared to any other group): progressed in disease severity more rapidly
- change in MMSE scores over the 12 month period of the trial (high end of the pro-inflammatory profile (group 3), compared to the low end and the referent group, listed as anti-inflammatory drug): stable over 12 months; also recorded: stable over 12 mo
- change in MMSE scores over the 12 month period of the trial (low end of the pro-inflammatory profile (group 1), compared to the referent (middle) group): declined significantly faster
